From patent US20250353891A1 (MEDIMMUNE LIMITED, priority 2022, published 2025)
Starred links: 1 amine or outer side, 2 acyl side, 3 side chain; linkers in the order of their positions; H or OH if unused. Non-standard residues stand in square brackets, D forms with d. Residues, ends and D or L forms follow the SMILES beside them. Groups on a side chain read outwards from the residue. *: point of attachment. C20 diacid = O=C(O)CCCCCCCCCCCCCCCCCCC(=O)*; C18 diacid = O=C(O)CCCCCCCCCCCCCCCCC(=O)*; γGlu = O=C(O)[C@H](CCC(=O)[*:2])N[*:1]; αMeF = C[C@](N)(Cc1ccccc1)C(=O)O; PEG4 = NCCOCCOCCOCCOCCC(=O)O; PEG2 = NCCOCCOCCC(=O)O; AEEA = NCCOCCOCC(=O)O; Aib = CC(C)(N)C(=O)O

Columns and labels:
[1] = biological target: human GLP-1 receptor (hGLP-1R) (Homo sapiens, UniProt P43220); assay: cAMP production (HTRF) in CHO cells expressing hGLP-1R; assay type: cell-based; set-up: expressed in transfected cells; details: for EC50: Table 7, peptides modified at position 20, cAMP in CHO hGLP-1R cells, geometric mean, read-out: hGLP-1R EC50; for % Relative Potency Ratio: Table 7, % GLP-1R activity relative to GLP-1 / % GlucR activity relative to glucagon
In short: (§1)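 Read-out: HTRF cAMP (anti-cAMP cryptate donor, cAMP-d2 acceptor in conjugate/lysis buffer), converted to % Delta F and fitted by 4-parameter logistic for EC50. Cell densities were 1×10^5 cells/mL (hGLP-1R) or 2×10^5 cells/mL (hGCGR). Stimulation lasted 30 min at room temperature.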

[2] = biological target: human glucagon receptor (hGCGR) (Homo sapiens, UniProt P47871); assay: cAMP production (HTRF) in CHO cells expressing hGCGR; assay type: cell-based; set-up: expressed in transfected cells; details: Table 7, peptides modified at position 20; cAMP in CHO hGCGR cells; geometric mean; read-out: hGluc-R EC50
In short: as §1

Chain of human GLP-1 receptor (hGLP-1R) (P43220 24-463): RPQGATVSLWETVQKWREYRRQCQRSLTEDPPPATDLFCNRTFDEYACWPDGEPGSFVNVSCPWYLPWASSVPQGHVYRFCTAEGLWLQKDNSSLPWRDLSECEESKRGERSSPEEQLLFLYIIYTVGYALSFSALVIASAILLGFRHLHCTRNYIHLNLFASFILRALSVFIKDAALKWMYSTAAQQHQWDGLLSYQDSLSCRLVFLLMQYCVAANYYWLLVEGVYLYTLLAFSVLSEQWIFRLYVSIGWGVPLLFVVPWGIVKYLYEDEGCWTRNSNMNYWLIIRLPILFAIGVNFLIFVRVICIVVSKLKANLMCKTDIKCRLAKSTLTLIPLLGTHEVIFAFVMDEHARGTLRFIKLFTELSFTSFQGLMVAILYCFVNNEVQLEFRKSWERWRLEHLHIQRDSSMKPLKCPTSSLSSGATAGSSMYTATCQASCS
Chain of human glucagon receptor (hGCGR) (P47871 26-477): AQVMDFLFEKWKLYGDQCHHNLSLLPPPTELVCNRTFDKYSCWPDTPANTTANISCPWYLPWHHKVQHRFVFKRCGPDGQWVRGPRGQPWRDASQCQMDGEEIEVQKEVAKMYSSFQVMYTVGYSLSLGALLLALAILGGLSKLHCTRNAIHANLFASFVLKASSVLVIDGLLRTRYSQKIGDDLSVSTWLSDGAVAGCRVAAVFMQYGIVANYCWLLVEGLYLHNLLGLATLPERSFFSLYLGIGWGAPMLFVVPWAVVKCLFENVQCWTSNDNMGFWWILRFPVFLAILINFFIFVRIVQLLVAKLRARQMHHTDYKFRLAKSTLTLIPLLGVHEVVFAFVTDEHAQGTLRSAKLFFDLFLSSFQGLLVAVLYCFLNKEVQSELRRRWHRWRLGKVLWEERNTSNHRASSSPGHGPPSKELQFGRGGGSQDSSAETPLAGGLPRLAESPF

| SMILES | EC50 [1] | % Relative Potency Ratio [1] | EC50 [2] |
| --- | --- | --- | --- |
| CC[C@H](C)[C@H](NC(=O)C(C)(C)NC(=O)[C@H](CCC(N)=O)NC(=O)[C@@H](NC(=O)[C@](C)(Cc1ccccc1)NC(=O)[C@H](CC(=O)O)NC(=O)[C@H](CCCCNC(=O)COCCOCCNC(=O)COCCOCCNC(=O)CC[C@H](NC(=O)CC[C@H](NC(=O)CCCCCCCCCCCCCCCCCCC(=O)O)C(=O)O)C(=O)O)NC(=O)[C@H](C)NC(=O)[C@H](C)NC(=O)[C@H](CCC(N)=O)NC(=O)[C@H](CO)NC(=O)[C@H](CC(=O)O)NC(=O)[C@H](CC(C)C)NC(=O)[C@](C)(Cc1ccccc1)NC(=O)[C@H](CCCCN)NC(=O)[C@H](CO)NC(=O)[C@@H](NC(=O)[C@H](CC(=O)O)NC(=O)[C@H](CO)NC(=O)[C@@H](NC(=O)[C@](C)(Cc1ccccc1)NC(=O)[C@H](CO)NC(=O)CNC(=O)[C@H](Cc1c[nH]cn1)NC(=O)C(C)(C)NC(=O)[C@@H](N)Cc1c[nH]cn1)[C@@H](C)O)C(C)C)C(C)C)C(=O)N[C@@H](C)C(=O)N[C@@H](CC(N)=O)C(=O)N[C@H](C(N)=O)[C@@H](C)O [Peptide 256] (H-H[Aib]HGS[αMeF]TSDVSK[αMeF]LDSQAAK([AEEA-AEEA-γGlu-γGlu-C20 diacid])D[αMeF]VQ[Aib]IANT-NH2) | 0.346 nM | 7.5 | 1.31 nM |
| CC[C@H](C)[C@H](NC(=O)C(C)(C)NC(=O)[C@H](CCC(N)=O)NC(=O)[C@@H](NC(=O)[C@](C)(Cc1ccccc1)NC(=O)[C@H](CC(=O)O)NC(=O)[C@H](CCCCNC(=O)CCOCCOCCNC(=O)CCOCCOCCNC(=O)CC[C@H](NC(=O)CC[C@H](NC(=O)CCCCCCCCCCCCCCCCC(=O)O)C(=O)O)C(=O)O)NC(=O)[C@H](C)NC(=O)[C@H](C)NC(=O)[C@H](CCCNC(=N)N)NC(=O)[C@H](CO)NC(=O)[C@H](CC(=O)O)NC(=O)[C@H](CC(C)C)NC(=O)[C@](C)(Cc1ccccc1)NC(=O)[C@H](CCCCN)NC(=O)[C@H](CO)NC(=O)[C@@H](NC(=O)[C@H](CC(=O)O)NC(=O)[C@H](CO)NC(=O)[C@@H](NC(=O)[C@](C)(Cc1ccccc1)NC(=O)[C@H](CO)NC(=O)CNC(=O)[C@H](Cc1c[nH]cn1)NC(=O)C(C)(C)NC(=O)[C@@H](N)Cc1c[nH]cn1)[C@@H](C)O)C(C)C)C(C)C)C(=O)N[C@@H](C)C(=O)N[C@@H](CC(N)=O)C(=O)N[C@H](C(N)=O)[C@@H](C)O [Peptide 258] (H-H[Aib]HGS[αMeF]TSDVSK[αMeF]LDSRAAK([PEG2-PEG2-γGlu-γGlu-C18 diacid])D[αMeF]VQ[Aib]IANT-NH2; N-terminus assumed) | 0.034 nM | 5.4 | 0.0931 nM |
| CC[C@H](C)[C@H](NC(=O)C(C)(C)NC(=O)[C@H](CCC(N)=O)NC(=O)[C@@H](NC(=O)[C@](C)(Cc1ccccc1)NC(=O)[C@H](CC(=O)O)NC(=O)[C@H](CCCCNC(=O)COCCOCCNC(=O)CC[C@H](NC(=O)COCCOCCNC(=O)CCCCCCCCCCCCCCCCC(=O)O)C(=O)O)NC(=O)[C@H](C)NC(=O)[C@H](C)NC(=O)[C@H](CCCNC(=N)N)NC(=O)[C@H](CO)NC(=O)[C@H](CC(=O)O)NC(=O)[C@H](CC(C)C)NC(=O)[C@](C)(Cc1ccccc1)NC(=O)[C@H](CCCCN)NC(=O)[C@H](CO)NC(=O)[C@@H](NC(=O)[C@H](CC(=O)O)NC(=O)[C@H](CO)NC(=O)[C@@H](NC(=O)[C@](C)(Cc1ccccc1)NC(=O)[C@H](CO)NC(=O)CNC(=O)[C@H](Cc1c[nH]cn1)NC(=O)C(C)(C)NC(=O)[C@@H](N)Cc1c[nH]cn1)[C@@H](C)O)C(C)C)C(C)C)C(=O)N[C@@H](C)C(=O)N[C@@H](CC(N)=O)C(=O)N[C@H](C(N)=O)[C@@H](C)O [Peptide 259] (H-H[Aib]HGS[αMeF]TSDVSK[αMeF]LDSRAAK([AEEA-γGlu-AEEA-C18 diacid])D[αMeF]VQ[Aib]IANT-NH2) | 0.0191 nM | 3.6 | 0.0348 nM |
| CC[C@H](C)[C@H](NC(=O)C(C)(C)NC(=O)[C@H](CCC(N)=O)NC(=O)[C@@H](NC(=O)[C@](C)(Cc1ccccc1)NC(=O)[C@H](CC(=O)O)NC(=O)[C@H](CCCCNC(=O)COCCOCCNC(=O)CC[C@H](NC(=O)COCCOCCNC(=O)CC[C@H](NC(=O)CCCCCCCCCCCCCCCCC(=O)O)C(=O)O)C(=O)O)NC(=O)[C@H](C)NC(=O)[C@H](C)NC(=O)[C@H](CCCNC(=N)N)NC(=O)[C@H](CO)NC(=O)[C@H](CC(=O)O)NC(=O)[C@H](CC(C)C)NC(=O)[C@](C)(Cc1ccccc1)NC(=O)[C@H](CCCCN)NC(=O)[C@H](CO)NC(=O)[C@@H](NC(=O)[C@H](CC(=O)O)NC(=O)[C@H](CO)NC(=O)[C@@H](NC(=O)[C@](C)(Cc1ccccc1)NC(=O)[C@H](CO)NC(=O)CNC(=O)[C@H](Cc1c[nH]cn1)NC(=O)C(C)(C)NC(=O)[C@@H](N)Cc1c[nH]cn1)[C@@H](C)O)C(C)C)C(C)C)C(=O)N[C@@H](C)C(=O)N[C@@H](CC(N)=O)C(=O)N[C@H](C(N)=O)[C@@H](C)O [Peptide 260] (H-H[Aib]HGS[αMeF]TSDVSK[αMeF]LDSRAAK([AEEA-γGlu-AEEA-γGlu-C18 diacid])D[αMeF]VQ[Aib]IANT-NH2) | 0.0331 nM | 4.6 | 0.0769 nM |
| CC[C@H](C)[C@H](NC(=O)C(C)(C)NC(=O)[C@H](CCC(N)=O)NC(=O)[C@@H](NC(=O)[C@](C)(Cc1ccccc1)NC(=O)[C@H](CC(=O)O)NC(=O)[C@H](CCCCNC(=O)CCOCCOCCOCCOCCNC(=O)CC[C@H](NC(=O)CCCCCCCCCCCCCCCCC(=O)O)C(=O)O)NC(=O)[C@H](C)NC(=O)[C@H](C)NC(=O)[C@H](CCCNC(=N)N)NC(=O)[C@H](CO)NC(=O)[C@H](CC(=O)O)NC(=O)[C@H](CC(C)C)NC(=O)[C@](C)(Cc1ccccc1)NC(=O)[C@H](CCCCN)NC(=O)[C@H](CO)NC(=O)[C@@H](NC(=O)[C@H](CC(=O)O)NC(=O)[C@H](CO)NC(=O)[C@@H](NC(=O)[C@](C)(Cc1ccccc1)NC(=O)[C@H](CO)NC(=O)CNC(=O)[C@H](Cc1c[nH]cn1)NC(=O)C(C)(C)NC(=O)[C@@H](N)Cc1c[nH]cn1)[C@@H](C)O)C(C)C)C(C)C)C(=O)N[C@@H](C)C(=O)N[C@@H](CC(N)=O)C(=O)N[C@H](C(N)=O)[C@@H](C)O [Peptide 261] (H-H[Aib]HGS[αMeF]TSDVSK[αMeF]LDSRAAK([PEG4-γGlu-C18 diacid])D[αMeF]VQ[Aib]IANT-NH2; N-terminus assumed) | 0.0162 nM | 3.6 | 0.0294 nM |
| CC[C@H](C)[C@H](NC(=O)C(C)(C)NC(=O)[C@H](CCC(N)=O)NC(=O)[C@@H](NC(=O)[C@](C)(Cc1ccccc1)NC(=O)[C@H](CC(=O)O)NC(=O)[C@H](CCCCNC(=O)COCCOCCNC(=O)CC[C@H](NC(=O)CCCCCCCCCCCCCCCCC(=O)O)C(=O)O)NC(=O)[C@H](C)NC(=O)[C@H](C)NC(=O)[C@H](CCCNC(=N)N)NC(=O)[C@H](CO)NC(=O)[C@H](CC(=O)O)NC(=O)[C@H](CC(C)C)NC(=O)[C@](C)(Cc1ccccc1)NC(=O)[C@H](CCCCN)NC(=O)[C@H](CO)NC(=O)[C@@H](NC(=O)[C@H](CC(=O)O)NC(=O)[C@H](CO)NC(=O)[C@@H](NC(=O)[C@](C)(Cc1ccccc1)NC(=O)[C@H](CO)NC(=O)CNC(=O)[C@H](Cc1c[nH]cn1)NC(=O)C(C)(C)NC(=O)[C@@H](N)Cc1c[nH]cn1)[C@@H](C)O)C(C)C)C(C)C)C(=O)N[C@@H](C)C(=O)N[C@@H](CC(N)=O)C(=O)N[C@H](C(N)=O)[C@@H](C)O [Peptide 262] (H-H[Aib]HGS[αMeF]TSDVSK[αMeF]LDSRAAK([AEEA-γGlu-C18 diacid])D[αMeF]VQ[Aib]IANT-NH2) | 0.013 nM | 1.8 | 0.0117 nM |
| CC[C@H](C)[C@H](NC(=O)C(C)(C)NC(=O)[C@H](CCC(N)=O)NC(=O)[C@@H](NC(=O)[C@](C)(Cc1ccccc1)NC(=O)[C@H](CC(=O)O)NC(=O)[C@H](CCCCNC(=O)CCOCCOCCOCCOCCNC(=O)CC[C@H](NC(=O)CC[C@H](NC(=O)CCCCCCCCCCCCCCCCC(=O)O)C(=O)O)C(=O)O)NC(=O)[C@H](C)NC(=O)[C@H](C)NC(=O)[C@H](CCCNC(=N)N)NC(=O)[C@H](CO)NC(=O)[C@H](CC(=O)O)NC(=O)[C@H](CC(C)C)NC(=O)[C@](C)(Cc1ccccc1)NC(=O)[C@H](CCCCN)NC(=O)[C@H](CO)NC(=O)[C@@H](NC(=O)[C@H](CC(=O)O)NC(=O)[C@H](CO)NC(=O)[C@@H](NC(=O)[C@](C)(Cc1ccccc1)NC(=O)[C@H](CO)NC(=O)CNC(=O)[C@H](Cc1c[nH]cn1)NC(=O)C(C)(C)NC(=O)[C@@H](N)Cc1c[nH]cn1)[C@@H](C)O)C(C)C)C(C)C)C(=O)N[C@@H](C)C(=O)N[C@@H](CC(N)=O)C(=O)N[C@H](C(N)=O)[C@@H](C)O [Peptide 263] (H-H[Aib]HGS[αMeF]TSDVSK[αMeF]LDSRAAK([PEG4-γGlu-γGlu-C18 diacid])D[αMeF]VQ[Aib]IANT-NH2) | 0.0254 nM |  | 0.0646 nM |
| CC[C@H](C)[C@H](NC(=O)C(C)(C)NC(=O)[C@H](CCC(N)=O)NC(=O)[C@@H](NC(=O)[C@](C)(Cc1ccccc1)NC(=O)[C@H](CC(=O)O)NC(=O)[C@H](CCCCNC(=O)CCOCCOCCNC(=O)CCOCCOCCNC(=O)CC[C@H](NC(=O)CC[C@H](NC(=O)CCCCCCCCCCCCCCCCCCC(=O)O)C(=O)O)C(=O)O)NC(=O)[C@H](C)NC(=O)[C@H](C)NC(=O)[C@H](CCCNC(=N)N)NC(=O)[C@H](CO)NC(=O)[C@H](CC(=O)O)NC(=O)[C@H](CC(C)C)NC(=O)[C@](C)(Cc1ccccc1)NC(=O)[C@H](CCCCN)NC(=O)[C@H](CO)NC(=O)[C@@H](NC(=O)[C@H](CC(=O)O)NC(=O)[C@H](CO)NC(=O)[C@@H](NC(=O)[C@](C)(Cc1ccccc1)NC(=O)[C@H](CO)NC(=O)CNC(=O)[C@H](Cc1c[nH]cn1)NC(=O)C(C)(C)NC(=O)[C@@H](N)Cc1c[nH]cn1)[C@@H](C)O)C(C)C)C(C)C)C(=O)N[C@@H](C)C(=O)N[C@@H](CC(N)=O)C(=O)N[C@H](C(N)=O)[C@@H](C)O [Peptide 264] (H-H[Aib]HGS[αMeF]TSDVSK[αMeF]LDSRAAK([PEG2-PEG2-γGlu-γGlu-C20 diacid])D[αMeF]VQ[Aib]IANT-NH2) | 0.0695 nM | 8.5 | 0.297 nM |
